This experiment concerns the target T1, Human IDO1 (Homo sapiens, UniProt P14902).
T1 construct: expressed in transfected cells; host or cells: HEK293
Nature of the experiment: IDO Kynurenine Assay with Human IDO1/HEK293 Cells. The experiment is classed as cell-based. Particulars: read-out: HEK human IDO-1 (IC50). The procedure: IDO Kynurenine Assay with Human IDO1/HEK293 Cells
Human IDO1/HEK293 cells were seeded at 10,000 cells per 50 uL per well with RPMI/phenol red free media contains 10% FBS in a 384-well black wall clear bottom tissue culture plate (Matrix Technologies LLC) 125 nL of certain concentration of compound was then added to each well using ECHO liquid handling systems. The cells were incubated for 20 hours in 37° C. incubator with 5% CO2.
The compound treatments were stopped by adding Trichloroacetic Acid (Sigma-Aldrich) to a final concentration at 0.2%. The cell plate was further incubated at 50° C. for 30 minute. The equal volume supernatant (20 uL) and 0.2% (w/v) Ehrlich reagent (4-dimethylaminobenzaldehyde, Sigma-Aldrich) in glacial acetic acid were mixed in a new clear bottom 384-well plate. This plate was then incubated at room temperature for 30 minute. The absorbance at 490 nm was measured on Envision plate reader.
Compound IC50 values were calculated using the counts of 500 nM of a reference standard treatment as one hundred percent inhibition, and counts of no compound but DMSO treatment as zero percent inhibition.

As usually defined, the IC50 is the concentration that inhibits the measured activity by half.

T1 sequence (P14902 whole entry): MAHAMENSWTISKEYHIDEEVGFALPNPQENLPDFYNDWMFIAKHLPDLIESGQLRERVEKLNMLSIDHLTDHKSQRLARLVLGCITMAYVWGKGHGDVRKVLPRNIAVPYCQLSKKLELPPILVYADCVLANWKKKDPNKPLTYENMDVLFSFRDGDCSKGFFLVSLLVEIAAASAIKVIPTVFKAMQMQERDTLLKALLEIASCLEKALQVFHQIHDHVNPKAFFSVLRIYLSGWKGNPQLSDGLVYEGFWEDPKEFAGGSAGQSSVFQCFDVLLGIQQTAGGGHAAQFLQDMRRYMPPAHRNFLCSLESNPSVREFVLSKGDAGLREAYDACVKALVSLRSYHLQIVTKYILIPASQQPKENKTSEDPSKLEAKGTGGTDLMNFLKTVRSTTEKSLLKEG

With `CCC(CC)N(CC(C)C)c1ccc(-c2ccccc2C(=O)O)cc1NC(=O)Nc1ccccc1F` [Example 448], the IC50 is 1.56 nM.
Consider `CC(C)CN(c1cc(F)c(-c2cc(F)ccc2C(=O)O)cc1NC(=O)Nc1ccc(C2CCCCC2)cc1)C1CCCCC1` [Example 523, 4′-(Cyclohexyl(isobutyl)amino)-5′-(3-(4-cyclohexylphenyl)ureido)-2′,5-difluoro-[1,1′-biphenyl]-2-carboxylic acid], for which the IC50 was determined as 5520 nM.
For the molecule `CC(C)CN(c1c(F)cc(-c2ccccc2-c2nnn[nH]2)cc1NC(=O)Nc1ccccc1F)C1CCCCC1` [Example 430], the 50% inhibitory concentration (IC50) is 0.606 nM.
Turning to `CCOc1ccc(NC(=O)Nc2cc(-c3ccccc3-c3nnn[nH]3)c(F)cc2N(CC(C)C)C2CCC(F)(F)CC2)cc1` [Example 539, 1-(4-((4,4-Difluorocyclohexyl)(isobutyl)amino)-6-fluoro-2′-(1H-tetrazol-5-yl)-[1,1′-biphenyl]-3-yl)-3-(4-ethoxyphenyl)urea], the 50% inhibitory concentration (IC50) was 3.3 nM.
`CC(C)CN(c1cc(F)c(-c2cc(F)ccc2C(=O)O)cc1NC(=O)Nc1ccc2nccnc2c1)C1CCCCC1` [Example 403]: the IC50 came out at 2.32 nM.
Regarding `Cc1c(Br)cc(NC(=O)Nc2cc(-c3cc(F)ccc3C(=O)O)ccc2N(CC(C)C)C2CCCCC2)cc1Br` [Example 507, 4′-(Cyclohexyl(isobutyl)amino)-3′-(3-(3,5-dibromo-4-methylphenyl)ureido)-5-fluoro-[1,1′-biphenyl]-2-carboxylic acid], the half-inhibitory concentration (IC50) is 2870 nM.
The figure for `COC(C)(C)CCN(c1ccc(-c2ccccc2C(=O)O)cc1NC(=O)Nc1ccc(C)cc1)C1CCCCC1` [Example 420] is 5250 nM; for `Cc1cc(NC(=O)Nc2cc(-c3cccc(C)c3C(=O)O)ccc2N(CC(C)C)CC(C)C)on1` [Example 535, 4′-(Diisobutylamino)-3-methyl-3′-(3-(3-methylisoxazol-5-yl)ureido)-[1,1′-biphenyl]-2-carboxylic acid] it is 140 nM.
Turning to `CC(C)CN(c1cc(F)c(-c2cc(F)ccc2C(=O)O)cc1NC(=O)Nc1cnn(CC(F)(F)F)c1)C1CCC(F)(F)CC1` [Example 520, 4′-((4,4-Difluorocyclohexyl)(isobutyl)amino)-2′,5-difluoro-5′-(3-(1-(2,2,2-trifluoroethyl)-1H-pyrazol-4-yl)ureido)-[1,1′-biphenyl]-2-carboxylic acid], the IC50 was found to be 4870 nM.
Take `Cc1ccc(NC(=O)Nc2cc(-c3ccccc3-c3nnn[nH]3)ccc2N(C2CC2)C2CC2)cc1` [Example 542]: the IC50 was found to be 760 nM.
In the case of `COCCN(c1ccc(-c2cc(F)ccc2C(=O)O)cc1NC(=O)Nc1ccc(C)cc1)C1CCCCC1` [Example 447], the IC50 turned out to be 60 nM.
Take `CC(C)CN(c1cc(F)c(-c2cc(F)ccc2C(=O)O)cc1NC(=O)Nc1ccc(OC(F)(F)F)cc1)C1CCCCC1` [Example 485]: the IC50 amounted to 5.75 nM.
Take `Cc1cc(NC(=O)Nc2cc(-c3ccccc3-c3nnn[nH]3)ccc2N(CC(C)C)CC(C)C)on1` [Example 396]: the half-inhibitory concentration (IC50) was determined as 6.07 nM.
`Cc1ccc(NC(=O)Nc2cc(-c3cc(F)ccc3C(=O)O)cc(F)c2N(CC(C)C)C2CCCCC2)cc1` [Example 435]: the half-inhibitory concentration (IC50) is 3 nM.
On to `Cc1ccc(NC(=O)Nc2cc(-c3ccccc3-c3nnn[nH]3)cc(F)c2N(CC(C)C)C2CCCCC2)cc1` [Example 433], for which the IC50 was found to be 1.97 nM.
As to `Cc1ccc(NC(=O)Nc2cc(-c3cc(C)ccc3C(=O)O)ccc2N(CC(C)C)CC(C)C)cc1` [Example 530, 4′-(Diisobutylamino)-5-methyl-3′-(3-(p-tolyl)ureido)-[1,1′-biphenyl]-2-carboxylic acid], the half-maximal inhibitory concentration (IC50) was determined as 300 nM.
Next, `CC(C)CN(c1cc(F)c(-c2cc(F)ccc2C(=O)O)cc1NC(=O)Nc1ccc2nccn2c1)C1CCCCC1` [Example 404]: 2560 nM; `CCC(CC)N(CC(C)C)c1ccc(-c2ccccc2-c2nnn[nH]2)cc1NC(=O)Nc1ccccc1F` [Example 449]: 1.41 nM.
As for `Cc1cc(NC(=O)Nc2cc(-c3cc(F)ccc3C(=O)O)c(F)cc2N(CC(C)C)C2CCCCC2)on1` [Example 376], the IC50 was 2.15 nM.
For `COC(C)(C)CCN(c1ccc(-c2cc(F)ccc2C(=O)O)cc1NC(=O)Nc1ccc(C)cc1)C1CCCCC1` [Example 421], the IC50 was 3300 nM.
Next, `CC(C)CN(c1c(F)cc(-c2ccccc2C(=O)O)cc1NC(=O)Nc1ccccc1F)C1CCCCC1` [Example 432]: 1.82 nM.
`C=C(C)CN(c1ccc(-c2ccccc2-c2nnn[nH]2)cc1NC(=O)Nc1ccc(C)cc1)C1CCCCC1` [Example 462]: the IC50 was determined as 1.11 nM.
As to `Cc1cnc(NC(=O)Nc2cc(-c3ccccc3-c3nnn[nH]3)ccc2N(CC(C)C)CC(C)C)cn1` [Example 308, 1-(4-(diisobutylamino)-2′-(2H-tetrazol-5-yl)-[1,1′-biphenyl]-3-yl)-3-(5-methylpyrazin-2-yl)urea], the IC50 stood at 270 nM.
`COCCN(c1ccc(-c2ccccc2-c2nnn[nH]2)cc1NC(=O)Nc1ccc(C)cc1)C1CCCCC1` [Example 446]: the half-inhibitory concentration (IC50) came to 2.45 nM.
As to `CC(C)CN(c1c(F)cc(-c2ccccc2C(=O)O)cc1NC(=O)Nc1ccc(Cl)cc1F)C1CCCCC1` [Example 438], the IC50 is 1.67 nM.
Consider `CC(C)CN(c1cc(F)c(-c2cc(F)ccc2C(=O)O)cc1NC(=O)Nc1ccn(C)n1)C1CCCCC1` [Example 515, 4′-(Cyclohexyl(isobutyl)amino)-2′,5-difluoro-5′-(3-(1-methyl-1H-pyrazol-3-yl)ureido)-[1,1′-biphenyl]-2-carboxylic acid], for which the IC50 amounted to 4220 nM.
Next, `Cc1ccc(NC(=O)Nc2cc(-c3cc(F)ccc3C(=O)O)c(F)cc2N(CC(C)C)C2CCCCC2)nn1` [Example 522, 4′-(Cyclohexyl(isobutyl)amino)-2′,5-difluoro-5′-(3-(6-methylpyridazin-3-yl)ureido)-[1,1′-biphenyl]-2-carboxylic acid]: 1220 nM; `Cc1ccc(NC(=O)Nc2cc(-c3ccccc3-c3nnn[nH]3)c(F)cc2N(CC(C)C)CC(C)C)cc1` [Example 429]: 5.55 nM; `Cc1ccc(NC(=O)Nc2cc(-c3cc(F)ccc3C(=O)O)ccc2N(C2CC2)C2CC2)cc1` [Example 541, 4′-(Dicyclopropylamino)-5-fluoro-3′-(3-(p-tolyl)ureido)-[1,1′-biphenyl]-2-carboxylic acid]: 3430 nM.
For the molecule `Cc1ccc(NC(=O)Nc2cc(-c3ccccc3-c3nnn[nH]3)c(F)cc2N(CC(C)C)C2CCC(F)(F)CC2)cc1` [Example 534, 1-(4-((4,4-Difluorocyclohexyl)(isobutyl)amino)-6-fluoro-2′-(1H-tetrazol-5-yl)-[1,1′-biphenyl]-3-yl)-3-(p-tolyl)urea], the IC50 was 3.05 nM.
For the molecule `CCC(CC)N(CC(C)C)c1ccc(-c2ccccc2-c2nnn[nH]2)cc1NC(=O)Nc1ccc(Cl)cc1F` [Example 441], the half-inhibitory concentration (IC50) was 1.14 nM.
The figure for `CC(C)CN(c1ccc(-c2cc(F)ccc2C(=O)O)cc1NC(=O)Nc1cc(C(F)(F)F)no1)C1CCCCC1` [Example 400] is 5.35 nM; for `Cc1ccc(NC(=O)Nc2cc(-c3cccc(Cl)c3C(=O)O)ccc2N(CC(C)C)CC(C)C)cc1` [Example 492] it is 160 nM; for `Cc1ccc(C(=O)O)c(-c2ccc(N(CC(C)C)CC(C)C)c(NC(=O)Nc3ccc(Cl)cc3F)c2)c1` [Example 527, 3′-(3-(4-Chloro-2-fluorophenyl)ureido)-4′-(diisobutylamino)-5-methyl-[1,1′-biphenyl]-2-carboxylic acid] it is 40 nM.
The figure for `C=C(C)CN(c1ccc(-c2ccccc2C(=O)O)cc1NC(=O)Nc1ccc(C)cc1)C1CCCCC1` [Example 460] is 2.4 nM.
For the molecule `CC(C)CN(c1cc(F)c(-c2cc(F)ccc2C(=O)O)cc1NC(=O)Nc1ccccc1F)C1CCC(F)(F)CC1` [Example 538, 4′-((4,4-Difluorocyclohexyl)(isobutyl)amino)-2′,5-difluoro-5′-(3-(2-fluorophenyl)ureido)-[1,1′-biphenyl]-2-carboxylic acid], the IC50 was 10 nM.
Consider `CC(C)CN(c1c(F)cc(-c2cc(F)ccc2C(=O)O)cc1NC(=O)Nc1ccc(Cl)cc1F)C1CCCCC1` [Example 434], for which the IC50 came out at 3.7 nM.
Regarding `CC(C)CN(c1ccc(-c2cc(F)ccc2C(=O)O)cc1NC(=O)Nc1ccc(C#N)nc1)C1CCCCC1` [Example 488], the 50% inhibitory concentration (IC50) was 3.46 nM.
With `CC(C)CN(c1ccc(-c2cc(F)ccc2C(=O)O)cc1NC(=O)Nc1ccc2nn(C)cc2c1)C1CCCCC1` [Example 409], the IC50 is 110 nM.
The figure for `CC(C)CN(CC(C)C)c1ccc(-c2ccc(Cl)cc2C(=O)O)cc1NC(=O)Nc1ccc(Cl)cc1F` [Example 360, 4-Chloro-3′-(3-(4-chloro-2-fluorophenyl)ureido)-4′-(diisobutylamino)-[1,1′-biphenyl]-2-carboxylic acid] is 20 nM; for `COc1ccc(-c2ccc(N(CC(C)C)CC(C)C)c(NC(=O)Nc3ccc(C#N)nc3)c2)c(C(=O)O)c1` [Example 498] it is 590 nM.
Regarding `CC(C)CN(CC(C)C)c1ccc(-c2ccccc2-c2nnn[nH]2)cc1NC(=O)Nc1ccc(N(C)C)cc1` [Example 463], the IC50 came to 20 nM.
Consider `COc1ccc(-c2ccc(N(CC(C)C)CC(C)C)c(NC(=O)Nc3ccc(C)cc3)c2)c(C(=O)O)c1` [Example 497], for which the IC50 was determined as 230 nM.
The figure for `CCOc1ccc(NC(=O)Nc2cc(-c3cc(F)ccc3C(=O)O)c(F)cc2N(CC(C)C)C2C[C@H]3CC[C@@H]2C3)cc1` (stereo partly drawn) [Example 412] is 60 nM.
As for `CCC(CC)N(CC(C)C)c1ccc(-c2ccccc2-c2nnn[nH]2)cc1NC(=O)Nc1ccc(C)cc1` [Example 444], the concentration for half-maximal inhibition (IC50) worked out at 3.21 nM.

For the origin of these results see patent publication US9758492B2, “IDO inhibitors” (Bristol-Myers Squibb Company, priority 2013, dated 2017).
